Assay results from patent EP1531159B1, “Peptide useful for diagnosis and therapy of tumors” (Deutsches Krebsforschungszentrum Stiftung des öffentlichen …, priority 2003, dated 2005).

How the values were obtained:
[1] = tested on: human tumor cell lines (DU-145, PC-3, IMR5-75, MDA-MB-435, SW-1736, NPA-87); assay: Binding of 125I-DU-Sigi1 to human tumor cell lines
Procedure: (§1) The peptide DU-Sigi1 (FRPNRAQDYNTN) was prepared by chemical synthesis and labelled with ^125I. For in vitro studies, 200,000 cells (DU-145, human prostate tumor cell line; PC-3, human prostate cell line; HUVEC, human primary endothelial cells, IMR5-75, human neuroblastoma cell line, MDA-MB-435, human breast cancer cell line, SW-1736, human thyroid cancer cell line, NPA-87, human thyroid cancer cell line) were seeded into 6-well plates and cultivated for 24 hours. Then, the medium was replaced by fresh medium (without FCS) and for the plates with competitor, unlabelled peptide was added (10^-4 M) and preincubated for 30 min. Then, ^125I-labelled peptide was added to the cell culture (1-2 mio cpm/well) and incubated for 10 min. The cells were collected and washed for three times with 1 ml PBS per washing. Then, the cells were lysed with 0.3 M NaOH. Radioactivity of the lysed cells was determined with a gamma counter and radioactivity as percent applied dose per 1 million cells was calculated.

[2] = tested on: DU-145 prostate tumor cells; assay: Binding kinetics of 125I-DU-Sigi1 on DU-145 cells; set-up: species or system human
Procedure: The peptide DU-Sigi1 (FRPNRAQDYNTN) was prepared by chemical synthesis and labelled with ^125I. 200,000 DU-145 cells (human prostate tumor cell line) were seeded into 6-well plates and cultivated for 24 hours. Then, the medium was replaced by fresh medium (without FCS). ^125I-labelled peptide was added to the cell culture (1-2 mio cpm/well) and incubated for times from 1 min to 4 h. After the incubation time the cells were collected and washed for three times with 1 ml PBS per washing. Then, the cells were lysed with 0.3 M NaOH. Radioactivity of the lysed cells was determined with a gamma counter and radioactivity as percent applied dose per 1 million cells was calculated. It could be shown that the binding of DU-Sigi1 is rapid and the highest binding rate occurs after 5 min. Then the amount of bound peptide decreases and reaches a basal level of about 1.5 % applied dose/1 mio cells.

[3] = tested on: human prostate tumor (DU-145); assay: Organ distribution of intravenously injected 131I-labeled DU-Sigi1 in tumor-bearing mice; format: in vivo, male nu/nu mice; details: i.v., 28 mio cpm/mouse, 15 min and 45 min postinjection
Procedure: The peptide DU-Sigi1 (FRPNRAQDYNTN) was prepared by chemical synthesis and labeled with ^131I. ^131I labeled peptide DU-Sigi1 (FRPNRAQDYNTN) (28 mio cpm/mouse) was intravenously injected into male nu/nu mice, which subcutaneously carried a human prostate tumor (DU-145). 15 min. and 45 min, respectively, postinjection the mice were sacrificed. The organs were removed, weighed and the radioactivity was determined with a gamma counter. […] The high blood volumn might be due to the degradation of the peptide by serum peptidases and proteases.

[4] = tested on: HUVEC, human primary endothelial cells; assay: Binding of 125I-DU-Sigi1 to primary endothelial cells; details: ^125I-labelled peptide, 1-2 mio cpm/well, 10 min incubation
Procedure: as §1

[5] = tested on: PC-3 cells (prostate tumor cell line); assay: Competition assay of 125I-DU-Sigi1 with unlabeled DU-Sigi1 on PC-3 cells; format: binding, human; details: data not shown
[6] = tested on: DU-145 prostate tumor cells; assay: Competition assay of 125I-DU-Sigi1 with unlabeled competitor on DU-145 cells; format: binding, human; details: for inhibition of binding of ^125I-DU-Sigi1: 10 min at 37°C
Procedure: The peptide DU-Sigi1 (FRPNRAQDYNTN) was prepared by chemical synthesis and labeled with ^125I. 200,000 DU-145 cells (human prostate tumor cell line) were seeded into 6-well plates and cultivated for 24 hours. Then, the medium was replaced by fresh medium (without FCS). Different competitor concentrations (unlabeled DU-Sigi1) were added to the medium 30 min before the ^125I-labeled peptide was added to the wells (1-2 mio cpm/well) and incubated for 10 min at 37°C.[…], After the incubation time the cells were collected and washed for three times with 1 ml PBS per washing. Then, the cells were lysed with 0.3 M NaOH. Radioactivity of the lysed cells was determined with a gamma counter and radioactivity as percent applied dose per 1 million cells was calculated. […] The ID50 is approx. 50 µM.

[7] = tested on: PC-3 cells (prostate tumor cell line); assay: Binding kinetics of 125I-DU-Sigi1 on PC-3 cells; set-up: species or system human; details: data not shown

Row | Substance | binding of labelled peptide to tumor cells ([1]; ^125I-labelled peptide, 1-2 mio cpm/well, 10 min incubation) | competitive inhibition of binding ([1]; unlabelled peptide 10^-4 M, preincubated for 30 min) | basal level of bound peptide ([2]; after the binding maximum, incubation up to 4 h) | time of highest binding rate ([2]; incubation times from 1 min to 4 h) [min] | accumulation in tumor versus other organs [3] | binding of labelled peptide to primary endothelial cells [4] | competition compared with DU-145 cells [5] | ID50 ([6]; unlabeled DU-Sigi1 as competitor of ^125I-DU-Sigi1) | inhibition of binding of ^125I-DU-Sigi1 ([6]; unlabeled DU-Sigi1 concentration 10^-4, added 30 min before) | inhibition of binding of ^125I-DU-Sigi1 ([6]; unlabeled DU-Sigi1 concentration 10^-5, added 30 min before) | binding kinetics compared with DU-145 cells [7] | competition with ^125I-DU-Sigi1 binding ([6]; unlabeled competitor, same concentration, data not shown)
1 | FRPNRAQDYNTN [DU-Sigi1] | specifically binds to the various tumor cells | up to 95% | about 1.5 % applied dose/1 mio cells | 5 | accumulates in the tumor to a higher extent than in the other organs, with the exeption of the kidney | not the primary endothelial cells | The same results were obtained | approx. 50 µM | more than 95% | more than 95% | The same results were obtained | 
2 | octreotide [reference compound] |  |  |  |  |  |  |  |  |  |  |  | No competition
